Results taken from patent publication US11268145B2, “Methods for treating Cushing's syndrome” (priority 2015, dated 2022).

Test system: FKBP5 gene expression
Test: FKBP5 gene expression in whole blood of healthy subjects after GR agonist, with or without GRA
Format: in vivo, human
Conditions: GAPDH normalized
Protocol: FIG. 1: depicts a study scheme for examining the expression level of the gene FKBP5, which encodes the FKBP5 protein, in response to administration of a GR modulator. In this scheme, healthy subjects are administered a GR agonist, followed by co-administration of a GR agonist and a GR antagonist (GRA). Blood samples are obtained from 10 subjects before each dose and at various time points after each dose. FKBP5 expression levels are measured before dosing on each day, and at selected times after dosing on each day.
Blood samples are taken before each dose and at various time-points after each dose. The study scheme is depicted in FIG. 1. The expression level of the FKBP5 gene is measured in the pre-administration samples obtained before dosing on each day and in the post-administration samples obtained at various time points after dosing on each day. Raw expression level data in the samples are normalized against the expression level of the glyceraldehyde phosphate dehydrogenase (GAPDH) gene in each sample.

Row | Structure (SMILES) | change in the fold change in FKBP5 expression (prednisone 25 mg with CORT125134 500 mg) | change in the fold change in FKBP5 expression (prednisone 25 mg with mifepristone 600 mg)
1 | Cn1cc(S(=O)(=O)N2CCC3=Cc4c(cnn4-c4ccc(F)cc4)C[C@]3(C(=O)c3cc(C(F)(F)F)ccn3)C2)cn1 [CORT125134] | significant decrease | 
2 | CC#C[C@]1(O)CC[C@H]2[C@@H]3CCC4=CC(=O)CCC4=C3[C@@H](c3ccc(N(C)C)cc3)C[C@@]21C [mifepristone] |  | significant decrease
